Peptide text beside a SMILES is read from it. * marks the point of attachment. C18 diacid = O=C(O)CCCCCCCCCCCCCCCCC(=O)*

Series [1] can be described thus: Solubility in 100 mM glycylglycine buffer at pH 4.0 incubated for 18 hrs by UPLC analysis. The class given is physicochemical.
A short description of series [2]: Solubility in 100 mM glycylglycine buffer at pH 3.0 incubated for 18 hrs by UPLC analysis. The class given is physicochemical.
Series [3] can be described thus: Solubility in 100 mM glycylglycine buffer at pH 5.0 incubated for 18 hrs by UPLC analysis. The class given is physicochemical.
Series [4] is described as follows: Solubility in 100 mM bistrispropane buffer at pH 7.5 incubated for 18 hrs by UPLC analysis. It counts as physicochemical.
Series [5] in a line: Solubility in 100 mM bistrispropane buffer at pH 8.0 incubated for 18 hrs by UPLC analysis. It counts as physicochemical.
A short description of series [6]: Solubility in 100 mM bistrispropane buffer at pH 7.0 incubated for 18 hrs by UPLC analysis. It counts as physicochemical.
Another series has as its target T1, Calcitonin receptor (Homo sapiens, UniProt P30988).
T1 sequence (P30988 whole entry): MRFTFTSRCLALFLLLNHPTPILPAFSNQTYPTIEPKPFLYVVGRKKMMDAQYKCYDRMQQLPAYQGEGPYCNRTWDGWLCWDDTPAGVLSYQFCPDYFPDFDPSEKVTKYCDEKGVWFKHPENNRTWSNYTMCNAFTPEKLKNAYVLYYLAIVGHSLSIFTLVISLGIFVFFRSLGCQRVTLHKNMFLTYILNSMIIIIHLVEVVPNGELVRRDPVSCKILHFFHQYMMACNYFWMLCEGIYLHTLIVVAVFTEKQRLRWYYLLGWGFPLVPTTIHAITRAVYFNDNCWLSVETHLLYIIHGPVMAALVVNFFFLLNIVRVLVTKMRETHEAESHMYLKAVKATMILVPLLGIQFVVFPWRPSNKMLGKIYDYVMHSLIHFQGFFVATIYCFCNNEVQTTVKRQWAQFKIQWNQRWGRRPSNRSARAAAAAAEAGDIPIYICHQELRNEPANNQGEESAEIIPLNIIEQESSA
Kind of series: Agonist activity at human calcitonin receptor expressed in BHK570 cells assessed as increase in intracellular cAMP concentration incubated for 3 hrs in absence of albumin by CRE luciferase reporter gene assay. The class given is functional, cell-based.

A short description of series [7]: Solubility in 100 mM bistrispropane buffer at pH 6.5 incubated for 18 hrs by UPLC analysis. It counts as physicochemical.
The target of series [8] is T2, Amylin receptor AMY3; CALCR/RAMP3 (Homo sapiens, UniProt O60896+P30988).
T2 sequence (P30988 whole entry): T1 sequence (P30988 whole entry)
T2 sequence (O60896 whole entry): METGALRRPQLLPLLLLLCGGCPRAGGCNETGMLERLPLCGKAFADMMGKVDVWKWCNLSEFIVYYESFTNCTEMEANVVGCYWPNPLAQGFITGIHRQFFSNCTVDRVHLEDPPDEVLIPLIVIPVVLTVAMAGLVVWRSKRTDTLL
Kind of series: Displacement of [125I]-labeled rat amylin from human amylin receptor expressed in BHK tkts13 whole cells co-expressing RAMP3 incubated for 60 mins by scintillation proximity assay. The class given is cell-based. In general terms: In a radioligand displacement assay an active substance lowers the binding of a labelled ligand.

The nature of series [9]: Solubility in 100 mM bistrispropane buffer at pH 6.0 incubated for 18 hrs by UPLC analysis. The class given is physicochemical.
Series [10] concerns the target T2, Amylin receptor AMY3; CALCR/RAMP3. Kind of series: Agonist activity at human amylin receptor expressed in BHK570 cells co-expressing RAMP3 assessed as increase in intracellular cAMP concentration incubated for 3 hrs in absence of albumin by CRE luciferase reporter gene assay. It counts as functional, cell-based. (A reporter such as luciferase makes a cellular process visible.)

As to `CC[C@H](C)[C@H](NC(=O)[C@H](CCC(=O)O)NC(=O)[C@H](C)NC(=O)[C@H](CO)NC(=O)[C@H](CC(C)C)NC(=O)[C@H](CCCNC(=N)N)NC(=O)CNC(=O)[C@H](CC(C)C)NC(=O)[C@H](C)NC(=O)[C@H](C)NC(=O)[C@@H](NC(=O)[C@H](CO)NC(=O)[C@H](CC(C)C)NC(=O)[C@H](CCC(=O)O)NC(=O)[C@H](CO)NC(=O)[C@H](C)NC(=O)[C@H](CCC(=O)O)NC(=O)CCCCCCCCCCCCCCCCC(=O)O)[C@@H](C)O)C(=O)N[C@@H](Cc1cnc[nH]1)C(=O)N[C@@H](CCC(=O)O)C(=O)N[C@@H](CC(C)C)C(=O)N[C@@H](C)C(=O)N[C@H](C(=O)N[C@@H](CC(C)C)C(=O)N1CCC[C@H]1C(=O)N[C@@H](CCCNC(=N)N)C(=O)N[C@H](C(=O)N[C@@H](CCC(=O)O)C(=O)N[C@H](C(=O)NCC(=O)N1CCC[C@H]1C(=O)N[C@@H](CCC(=O)O)C(=O)N[C@@H](CO)C(=O)N1CCC[C@H]1C(N)=O)[C@@H](C)O)[C@@H](C)O)[C@@H](C)O` ({C18 diacid}-EASELSTAALGRLSAEIHELATLPRTETGPESP-NH2), the solubility at 18 h in series [1], in series [2], in [3], in series [4], in series [5] and in [6] was no less than 200 µM each time. Moreover, the solubility at 18 h in [7] and in series [9] was no less than 200 µM each time. The EC50 (commonly the concentration giving half of the maximal effect) was 5 pM on Calcitonin receptor and 7 pM in [10]. The IC50 (usually the midpoint of a concentration-inhibition curve) in series [8] was 1.48 nM.
With `CC[C@H](C)[C@H](NC(=O)[C@H](CCC(=O)O)NC(=O)[C@H](Cc1cnc[nH]1)NC(=O)[C@H](CC(C)C)NC(=O)[C@H](CCC(=O)O)NC(=O)[C@H](C)NC(=O)[C@H](CO)NC(=O)[C@H](CC(C)C)NC(=O)[C@H](CCCNC(=N)N)NC(=O)CNC(=O)[C@H](CC(C)C)NC(=O)[C@H](C)NC(=O)[C@H](C)NC(=O)[C@@H](NC(=O)[C@H](CO)NC(=O)[C@H](CC(C)C)NC(=O)[C@H](CCC(=O)O)NC(=O)[C@H](CO)NC(=O)[C@H](C)NC(=O)[C@H](CCC(=O)O)NC(=O)CCCCCCCCCCCCCCCCC(=O)O)[C@@H](C)O)C(=O)N[C@@H](C)C(=O)N[C@H](C(=O)N[C@@H](CC(C)C)C(=O)N1CCC[C@H]1C(=O)N[C@@H](CCCNC(=N)N)C(=O)N[C@H](C(=O)N[C@@H](CCC(=O)O)C(=O)N[C@H](C(=O)NCC(=O)N1CCC[C@H]1C(=O)N[C@@H](CCC(=O)O)C(=O)N[C@@H](CO)C(=O)N1CCC[C@H]1C(N)=O)[C@@H](C)O)[C@@H](C)O)[C@@H](C)O` ({C18 diacid}-EASELSTAALGRLSAELHEIATLPRTETGPESP-NH2), the solubility at 18 h in series [1], in series [2], in series [3], in [4], in series [5] and in [6] was no less than 200 µM in each case. Besides, the solubility at 18 h in series [7] and in series [9] was no less than 200 µM throughout. For the same compound, the EC50 was 5 pM on Calcitonin receptor and 6 pM in [10]. Further, the IC50 in [8] was 0.511 nM.
Consider `CC(C)C[C@H](NC(=O)[C@H](CCC(=O)O)NC(=O)[C@H](Cc1cnc[nH]1)NC(=O)[C@H](CC(C)C)NC(=O)[C@H](CCC(=O)O)NC(=O)[C@H](C)NC(=O)[C@H](CO)NC(=O)[C@H](CC(C)C)NC(=O)[C@H](CCCNC(=N)N)NC(=O)CNC(=O)[C@H](CC(C)C)NC(=O)[C@@H](NC(=O)[C@H](C)NC(=O)[C@@H](NC(=O)[C@H](CO)NC(=O)[C@H](CC(C)C)NC(=O)[C@H](CCC(=O)O)NC(=O)[C@H](CO)NC(=O)[C@H](C)NC(=O)[C@H](CCC(=O)O)NC(=O)CCCCCCCCCCCCCCCCC(=O)O)[C@@H](C)O)C(C)C)C(=O)N[C@@H](C)C(=O)N[C@H](C(=O)N[C@@H](CC(C)C)C(=O)N1CCC[C@H]1C(=O)N[C@@H](CCCNC(=N)N)C(=O)N[C@H](C(=O)N[C@@H](CCC(=O)O)C(=O)N1CCC[C@H]1C(=O)NCC(=O)N1CCC[C@H]1C(=O)N[C@@H](CCC(=O)O)C(=O)N[C@@H](CO)C(=O)N1CCC[C@H]1C(N)=O)[C@@H](C)O)[C@@H](C)O` ({C18 diacid}-EASELSTAVLGRLSAELHELATLPRTEPGPESP-NH2), for which the solubility at 18 h in [1], in series [2], in [3], in [4], in series [5] and in series [6] was no less than 200 µM throughout. Besides, the solubility at 18 h in [7] and in series [9] was no less than 200 µM throughout. Further, the EC50 at Calcitonin receptor was 12 pM; in [10], 31 pM. For the same compound, in series [8], the half-maximal inhibitory concentration (IC50) was 9 nM.
With `CC(C)C[C@H](NC(=O)[C@H](C)NC(=O)[C@H](CC(C)C)NC(=O)[C@@H](NC(=O)[C@H](CO)NC(=O)[C@H](CC(C)C)NC(=O)[C@H](CCC(=O)O)NC(=O)[C@H](CO)NC(=O)[C@H](C)NC(=O)[C@H](CCC(=O)O)NC(=O)CCCCCCCCCCCCCCCCC(=O)O)[C@@H](C)O)C(=O)NCC(=O)N[C@@H](CCCNC(=N)N)C(=O)N[C@@H](CC(C)C)C(=O)N[C@@H](CO)C(=O)N[C@@H](C)C(=O)N[C@@H](CCC(=O)O)C(=O)N[C@@H](CC(C)C)C(=O)N[C@@H](Cc1cnc[nH]1)C(=O)N[C@@H](CCC(=O)O)C(=O)N[C@@H](CC(C)C)C(=O)N[C@@H](C)C(=O)N[C@H](C(=O)N[C@@H](CC(C)C)C(=O)N1CCC[C@H]1C(=O)N[C@@H](CCCNC(=N)N)C(=O)N[C@H](C(=O)N[C@@H](CCC(=O)O)C(=O)N[C@H](C(=O)NCC(=O)N1CCC[C@H]1C(=O)N[C@@H](CCC(=O)O)C(=O)N[C@@H](CO)C(=O)N1CCC[C@H]1C(N)=O)[C@@H](C)O)[C@@H](C)O)[C@@H](C)O` ({C18 diacid}-EASELSTLALGRLSAELHELATLPRTETGPESP-NH2), the solubility at 18 h in series [1], in series [2], in [3], in series [4], in series [5] and in series [6] was no less than 200 µM throughout. For the same compound, the solubility at 18 h in series [7] and in series [9] was no less than 200 µM each time. Besides, the figures for the EC50 (on Calcitonin receptor; in [10]) were 7 pM and 9 pM, respectively. Further, the IC50 in series [8] was 0.275 nM.
Regarding `CC(C)C[C@H](NC(=O)[C@H](CCC(=O)O)NC(=O)[C@H](Cc1cnc[nH]1)NC(=O)[C@H](CC(C)C)NC(=O)[C@H](CCC(=O)O)NC(=O)[C@H](C)NC(=O)[C@H](CO)NC(=O)[C@H](CC(C)C)NC(=O)[C@H](CCCNC(=N)N)NC(=O)CNC(=O)[C@H](CC(C)C)NC(=O)[C@@H](NC(=O)[C@H](C)NC(=O)[C@@H](NC(=O)[C@H](CO)NC(=O)[C@H](CC(C)C)NC(=O)[C@@H]1CCCN1C(=O)[C@H](CO)NC(=O)[C@H](C)NC(=O)[C@H](CCC(=O)O)NC(=O)CCCCCCCCCCCCCCCCC(=O)O)[C@@H](C)O)C(C)C)C(=O)N[C@@H](C)C(=O)N[C@H](C(=O)N[C@@H](CC(C)C)C(=O)N1CCC[C@H]1C(=O)N[C@@H](CCCNC(=N)N)C(=O)N[C@H](C(=O)N[C@@H](CCC(=O)O)C(=O)N[C@H](C(=O)NCC(=O)N1CCC[C@H]1C(=O)N[C@@H](CCC(=O)O)C(=O)N[C@@H](CO)C(=O)N1CCC[C@H]1C(N)=O)[C@@H](C)O)[C@@H](C)O)[C@@H](C)O` ({C18 diacid}-EASPLSTAVLGRLSAELHELATLPRTETGPESP-NH2), the solubility at 18 h in [1], in [2], in series [3], in [4], in series [5] and in series [6] was no less than 200 µM throughout. Also, the solubility at 18 h in series [7] and in series [9] was no less than 200 µM in each case. In addition, the EC50 on Calcitonin receptor was 7 pM; in series [10], 14 pM. Further, in series [8], the IC50 is 0.323 nM.
